These results are taken from ChEMBL document CHEMBL1138654, “Ring nitrogen-substituted non-steroidal estrogens: pyridine and pyrimidine analogs of the phenol in deoxyhexestrol experience resonance constraints on preferred ligand conformation” (Bioorg Med Chem Lett, 2004).

A short description of series [1]: pKa was determined. The format is physicochemical.
In series [2] the target is T1, Estrogen receptor (Homo sapiens) (UniProt P03372).
T1 sequence (whole entry): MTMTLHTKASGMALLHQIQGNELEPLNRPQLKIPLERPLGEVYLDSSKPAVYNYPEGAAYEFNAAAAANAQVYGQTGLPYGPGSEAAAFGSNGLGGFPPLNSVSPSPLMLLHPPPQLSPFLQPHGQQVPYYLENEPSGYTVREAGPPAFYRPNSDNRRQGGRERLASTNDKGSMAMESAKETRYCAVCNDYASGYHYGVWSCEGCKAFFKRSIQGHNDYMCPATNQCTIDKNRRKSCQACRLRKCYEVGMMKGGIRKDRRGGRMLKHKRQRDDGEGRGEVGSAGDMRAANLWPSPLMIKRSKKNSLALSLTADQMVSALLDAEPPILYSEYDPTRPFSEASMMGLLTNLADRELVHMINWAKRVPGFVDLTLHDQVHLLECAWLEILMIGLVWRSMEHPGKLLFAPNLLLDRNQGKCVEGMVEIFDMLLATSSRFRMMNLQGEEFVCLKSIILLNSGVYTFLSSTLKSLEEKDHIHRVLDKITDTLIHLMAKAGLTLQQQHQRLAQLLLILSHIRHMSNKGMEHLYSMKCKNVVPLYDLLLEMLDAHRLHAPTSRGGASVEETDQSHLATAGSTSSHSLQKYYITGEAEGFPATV
As to the kind of experiment: Inhibition of [3H]estradiol binding to human estrogen receptor alpha.

In series [3] the target is Estrogen receptor beta (Homo sapiens) (UniProt Q92731). As to the kind of experiment: Inhibition of [3H]estradiol binding to human estrogen receptor beta.
Sequence of Estrogen receptor beta (Homo sapiens) (Q92731 whole entry): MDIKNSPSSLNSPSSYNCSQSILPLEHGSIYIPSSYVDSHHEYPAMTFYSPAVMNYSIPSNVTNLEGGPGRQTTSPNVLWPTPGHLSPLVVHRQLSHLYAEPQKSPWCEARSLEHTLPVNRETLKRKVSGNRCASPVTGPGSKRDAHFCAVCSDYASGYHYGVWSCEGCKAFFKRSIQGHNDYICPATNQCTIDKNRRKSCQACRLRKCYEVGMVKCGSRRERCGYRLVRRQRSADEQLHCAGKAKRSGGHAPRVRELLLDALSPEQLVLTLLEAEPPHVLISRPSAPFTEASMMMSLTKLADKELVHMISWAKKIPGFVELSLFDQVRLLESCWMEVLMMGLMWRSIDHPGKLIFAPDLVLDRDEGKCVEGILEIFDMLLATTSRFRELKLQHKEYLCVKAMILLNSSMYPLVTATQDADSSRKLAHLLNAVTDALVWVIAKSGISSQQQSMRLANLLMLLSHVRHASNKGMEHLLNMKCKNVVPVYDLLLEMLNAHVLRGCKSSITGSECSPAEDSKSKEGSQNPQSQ

Consider `CCC(c1ccccc1)N(CC)c1ncc(O)cn1` (stereo not drawn), for which, in series [1], the pKa came out at 3.9. As for `CC(c1ccc(O)cc1)C(C)c1ccc(O)cc1` (stereo not drawn), the relative binding affinity (RBA) stood at 2.2 in series [2] and 40 in series [3].

One may read the pKa as the negative logarithm of the acid dissociation constant.
